Measured values from patent publication US20110236456A1, “IMPLANTABLE DEVICE FOR THE DELIVERY OF HISTRELIN AND METHODS OF USE THEREOF” (Endo Pharmaceuticals Solutions Inc., priority 2008, published 2011).

How the values were obtained:
[1] = In vitro elution of histrelin from HP-60D-20 polyurethane implant (Example 1); assay type: physicochemical; details: HP-60D-20 implant, approx. 37° C.
Protocol: HP-60D-20 is extruded to tubes with thickness of 0.30 mm with inside diameter of 1.75 mm. The tubes are then cut into 25 mm in length. One side of the tube is sealed with heat using a heat sealer. The sealing time is less than one minute. Four pellets of histrelin acetate are loaded into the tube. Each pellet weighs approximately 13.5 mg for a total of 54 mg. Each pellet is comprised of a mixture of 98% histrelin and 2% stearic acid. The second end open of the tube is sealed with heat in the same way as for the first end. The loaded implant is then conditioned and primed. The conditioning takes place at room temperature in a 0.9% saline solution for one day. Upon completion of the conditioning, the implant undergoes priming. The priming takes place at room temperatures in a 1.8% saline solution for one day. Each implant is tested in vitro in a medium selected to mimic the pH found in the human body. The temperature of the selected medium was kept at approximately 37° C. during the testing. The release rates are shown on FIG. 4 and Table 2.

[2] = Release rates of histrelin from Tecophilic, Tecoflex and Carbothane polyurethane implants (Example 3); assay type: physicochemical; details: for Release rate normalized to surface area of the implant: 2% SA, 50 mg API
From the text: Tables 2A-C show release rates of histrelin from three different classes of polyurethane compounds (Tecophilic®, Tecoflex® and Carbothane®). The release rates have been normalized to surface area of the implant, thereby adjusting for slight differences in the size of the various implantable devices. Histrelin is very soluble in water. Typically, a Log P value of greater than about 2.0 is considered to be not readily soluble in aqueous solution. The polyurethanes were selected to have varying affinities for water soluble active agents and varying flexibility (as indicated by the variation in flex modulus). […] Polyurethanes are available or can be prepared, for example, with a range of EWCs or flex moduli (Table 2). Tables 2A-C show normalized release rates for various active ingredients from polyurethane compounds. Tables 2D-F show the non-normalized release rates for the same active ingredients, together with implant composition.

`CCNC(=O)[C@@H]1CCCN1C(=O)[C@H](CCCNC(=N)N)NC(=O)[C@H](CC(C)C)NC(=O)[C@@H](Cc1cn(Cc2ccccc2)cn1)NC(=O)[C@H](Cc1ccc(O)cc1)NC(=O)[C@H](CO)NC(=O)[C@H](Cc1c[nH]c2ccccc12)NC(=O)[C@H](Cc1cnc[nH]1)NC(=O)[C@@H]1CCC(=O)N1` [Histrelin Acetate, Histrelin acetate] showed a Histrelin elution rate ([1]; week 1 of elution) of 451.733 µg/day, a Histrelin elution rate ([1]; week 2 of elution) of 582.666 µg/day and a Histrelin elution rate ([1]; week 3 of elution) of 395.9 µg/day. The Histrelin elution rate ([1]; week 4 of elution) was 310.29 µg/day, the Histrelin elution rate ([1]; week 5 of elution) was 264.92 µg/day and the Histrelin elution rate ([1]; week 6 of elution) was 247.17 µg/day. The Histrelin elution rate ([1]; week 7 of elution) was 215.93 µg/day, the Histrelin elution rate ([1]; week 8 of elution) was 201.78 µg/day and the Histrelin elution rate ([1]; week 9 of elution) was 183.22 µg/day. For the same molecule, the Histrelin elution rate ([1]; week 10 of elution) was 174.99 µg/day, the Histrelin elution rate ([1]; week 11 of elution) was 167.72 µg/day and the Histrelin elution rate ([1]; week 12 of elution) was 158.37 µg/day. For the same molecule, the Histrelin elution rate ([1]; week 13 of elution) was 153.95 µg/day, the Histrelin elution rate ([1]; week 14 of elution) was 146.46 µg/day and the Histrelin elution rate ([1]; week 15 of elution) was 139.83 µg/day. The Histrelin elution rate ([1]; week 16 of elution) was 129.6 µg/day, the Histrelin elution rate ([1]; week 17 of elution) was 124.46 µg/day and the Histrelin elution rate ([1]; week 18 of elution) was 118.12 µg/day. For the same molecule, the Histrelin elution rate ([1]; week 19 of elution) was 120.35 µg/day, the “Release rate normalized to surface area of the implant” value (“Release rate normalized” below) ([2]; Carbothane PC-3595A, F.M.: 4,500) was 0.2 μg/day/cm^2 and the Non-normalized release rate ([2]; Carbothane PC-3595A, F.M.: 4,500, ID 1.85 mm, wall 0.20 mm, L 25.25 mm, 1.625 cm^2) was 0.4 µg/day. For the same molecule, the “Release rate normalized” value ([2]; Tecoflex EG 100A, F.M.: 10,000) was 0.3 μg/day/cm^2, the Non-normalized release rate ([2]; Tecoflex EG 100A, F.M.: 10,000, ID 1.85 mm, wall 0.20 mm, L 25.56 mm, 1.645 cm^2) was 0.5 µg/day and the “Release rate normalized” value ([2]; Tecophilic HP-60D-20, 15% EWC) was 93 μg/day/cm^2. For the same molecule, the Non-normalized release rate ([2]; Tecophilic HP-60D-20, 15% EWC, ID 1.80 mm, wall 0.30 mm, L 24.5 mm, 1.616 cm^2) was 150 µg/day, the “Release rate normalized” value ([2]; Tecophilic HP-60D-35, 24% EWC) was 248 μg/day/cm^2 and the Non-normalized release rate ([2]; Tecophilic HP-60D-35, 24% EWC, ID 1.80 mm, wall 0.30 mm, L 24.5 mm, 1.616 cm^2) was 400 µg/day. The “Release rate normalized” value ([2]; Tecophilic HP-60D-60, 31% EWC) was 309 μg/day/cm^2 and the Non-normalized release rate ([2]; Tecophilic HP-60D-60, 31% EWC, ID 1.80 mm, wall 0.30 mm, L 24.5 mm, 1.616 cm^2) was 500 µg/day.
